Reference: patent publication US20240376086A1, “SOLID FORM OF RHO-ASSOCIATED PROTEIN KINASE INHIBITOR OR SOLVATE THEREOF, PREPARATION METHOD AND USE THEREOF” (BEIJING TIDE PHARMACEUTICAL CO., LTD., priority 2021, published 2024)

Assays:
Format in all cases: physicochemical
[1] = Solid hygroscopicity test; conditions: 25° C.±1° C., 80%±2% relative humidity, 24 hours
Experimental: Experimental Example 3: Solid Hygroscopicity Test
100 mg of Crystalline Form II of Compound A anhydrate and 100 mg of Crystalline Form I of Compound A monohydrate were precisely weighed. The two samples were placed at 25° C.±1° C. and 80%±2% relative humidity for 24 hours. The weight of the samples was then measured and the percentage weight increase was calculated.

[2] = Solid heat stability test (heating in DSC, then XRPD)
Experimental: Experimental Example 2: Solid Heat Stability Test
In a differential scanning calorimeter, samples of Crystalline Form I of Compound A monohydrate were heated at a rate of 10° C./min to 150° C. and 210° C., respectively, and then analyzed by X-ray powder diffraction.

[3] = Solid stability test (XRPD after storage)
Experimental: Experimental Example 1: Solid Stability Test
Two samples of Crystalline Form II of Compound A anhydrate were placed in environments of 40° C./75% RH and 60° C./90% RH for 7 days.

Structure (SMILES) | weight increase percentage (hygroscopicity) [1] [%] | crystalline form by XRPD after heat treatment ([2]; heated at 10° C./min to 150° C.) | crystalline form by XRPD after heat treatment ([2]; heated at 10° C./min to 210° C.) | change in the crystalline form by XRPD analysis ([3]; 40° C./75% RH for 7 days) | change in the crystalline form by XRPD analysis ([3]; 60° C./90% RH for 7 days)
Cn1c(C(=O)C2CC(F)(F)C2)cc2ccc(-c3nccc(Nc4ccc(-c5cn[nH]c5)cc4)n3)cc21 [Crystalline Form I of Compound A monohydrate] | 3.62 | remained unchanged | converted to crystalline form II of Compound A anhydrous | – | –
Cn1c(C(=O)C2CC(F)(F)C2)cc2ccc(-c3nccc(Nc4ccc(-c5cn[nH]c5)cc4)n3)cc21 [Crystalline Form II of Compound A anhydrate] | 0.69 | – | – | no change in the crystalline form | no change in the crystalline form
